biological target: T1, MAGE-A11:PCF11 interaction (GST-MAGE-A11 and FAM-PCF11_4) (Homo sapiens, UniProt P43364); assay: TR-FRET primary / single point screen at 15 µM; type: binding; details: single point TR-FRET screening of 797 quinoline compounds against MAGE-A11:PCF11
T1 construct: GST-MAGE-A11 MHD (human MAGE-A11 MHD amino acid 218-429); made in house; host or cells: E. coli BL21(DE3)
T1 sequence (P43364 218-429): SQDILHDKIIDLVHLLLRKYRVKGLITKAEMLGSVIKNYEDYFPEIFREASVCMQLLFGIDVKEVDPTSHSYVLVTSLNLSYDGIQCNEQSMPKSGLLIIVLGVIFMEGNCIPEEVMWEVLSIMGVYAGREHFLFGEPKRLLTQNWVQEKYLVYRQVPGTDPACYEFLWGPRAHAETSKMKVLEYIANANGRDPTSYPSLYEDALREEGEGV
Method in brief: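 Single-point screen at 15 µM final compound in 50 mM Tris pH 7.5, 20 mM MgCl2, 0.1 mg/ml BSA, 1 mM DTT, with 200 nM FAM-PCF11_4, 5 nM Tb-anti-GST and 5 nM GST-MAGE-A11. After 90 min at room temperature, the 520/490 nm TR-FRET ratio (340 nm excitation) gave %Inhibition against no-MAGE-A11 and DMSO controls.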

SMILES	percent inhibition (TR-FRET)
COc1cccc(F)c1CN1CCC(Nc2ccnc3cc(Cl)ccc23)CC1 [SJ000357498]	10.503
COc1ccc2ncc(S(=O)(=O)c3ccc(C)c(C)c3)c(N3CCN(c4ccccc4)CC3)c2c1 [SJ000117051]	-52.476
COc1ccccc1N1CCN(c2c(S(=O)(=O)c3ccc(C)cc3)cnc3ccc(C)cc23)CC1 [SJ000117066]	-92.8867
COc1ccc2ncc(S(=O)(=O)c3ccc(C)cc3)c(N3CCN(c4ccc(F)cc4)CC3)c2c1 [SJ000117059]	-118.524
CCOc1ccc2ncc(S(=O)(=O)c3ccccc3)c(N3CCN(C)CC3)c2c1 [SJ000083948]	-3.938
CCCCCN(CCC)CCCNc1c2ccc(Cl)cc2nc2ccc(OC)cc12 [SJ000520941]	-210.345
Cc1ccc(S(=O)(=O)c2cnc3ccccc3c2N2CCN(c3ccc(C)cc3C)CC2)cc1 [SJ000117080]	3.172
CCN1CCN(c2c(S(=O)(=O)c3ccc(C)cc3)cnc3ccc(OC)cc23)CC1 [SJ000083963]	-3.917
CCOc1ccc2ncc(C(=O)c3ccc(OC)cc3)c(N3CCN(C)CC3)c2c1 [SJ000247277]	-18.955
Fc1ccc(CN2CCC(Nc3ccnc4cc(Cl)ccc34)CC2)cc1 [SJ000523093]	10.6575
COc1ccc2nc3cc(Cl)ccc3c(NCCCNCc3cc(F)ccc3OC)c2c1 [SJ000520993]	-365.36
CCCN(CCCNc1c2ccc(Cl)cc2nc2ccc(OC)cc12)Cc1ccc(-c2cccc(Cl)c2)o1 [SJ000523020]	-169.736
COc1ccccc1N1CCN(c2c(S(=O)(=O)c3ccc(C)cc3)cnc3ccc(Cl)cc23)CC1 [SJ000117067]	-12.8602
Clc1ccc2c(NC3CCN(Cc4ccc5c(c4)OCO5)CC3)ccnc2c1 [SJ000523087]	7.6432
CN(C)CC(=O)Nc1c2c(nc3ccccc13)N(C)CC2 [SJ000332030]	17.0397
CCCN(CCCNc1c2ccc(Cl)cc2nc2ccc(OC)cc12)CCc1ccccc1 [SJ000520962]	-591.727
Cc1ccc(C)c(N2CCN(c3c(S(=O)(=O)c4ccccc4)cnc4ccc(F)cc34)CC2)c1 [SJ000117083]	-15.3776

SMILES	percent inhibition (TR-FRET)
CCc1ccc(S(=O)(=O)c2cnc3ccccc3c2N2CCN(c3ccccc3OC)CC2)cc1 [SJ000117069]	-47.4423
CCc1ccc(S(=O)(=O)c2cnc3ccccc3c2N2CCN(c3ccccc3F)CC2)cc1 [SJ000117079]	-56.5833
O=S(=O)(c1ccc(Cl)cc1)N1CCN(c2ccnc3cc(Cl)ccc23)CC1 [SJ000204656]	-34.3905
COc1ccc(N2CCN(c3c(S(=O)(=O)c4ccc(C)c(C)c4)cnc4ccc(F)cc34)CC2)cc1 [SJ000117073]	-13.2577
CCCCCN1CCC(Nc2ccnc3cc(Cl)ccc23)CC1 [SJ000523088]	12.1652
Cc1cc(NC(=O)CN[C@H]2CCN(Cc3ccccc3)C2)c2ccccc2n1 [SJ000832405]	4.364
COc1ccc2ncc(S(=O)(=O)c3ccccc3)c(N3CCN(c4ccccc4F)CC3)c2c1 [SJ000315263]	-252.464
COc1cc2ncc(S(=O)(=O)c3ccc(C)cc3)c(N3CCN(C)CC3)c2cc1OC [SJ000083951]	1.3128
Cc1ccc(S(=O)(=O)c2cnc3ccc(F)cc3c2N2CCN(C)CC2)cc1C [SJ000247344]	-7.6267
CCCN(CCCNc1c2ccc(Cl)cc2nc2ccc(OC)cc12)Cc1cccc(C)c1 [SJ000520954]	-157.809
CCCN(CCCNc1c2ccc(Cl)cc2nc2ccc(OC)cc12)Cc1ccco1 [SJ000520935]	-202.643
CCc1ccc2ncc(S(=O)(=O)c3ccc(Cl)cc3)c(N3CCN(CC)CC3)c2c1 [SJ000083968]	-19.1318
CCOc1ccc2ncc(S(=O)(=O)c3ccc(C)cc3)c(N3CCN(c4ccccc4F)CC3)c2c1 [SJ000117077]	5.159
COc1ccc2nc3cc(Cl)ccc3c(NCCCNCc3cc(Br)cs3)c2c1 [SJ000520996]	-287.642
COc1ccc2nc3cc(Cl)ccc3c(NCCCNCc3sccc3C)c2c1 [SJ000361094]	-321.32
Oc1ccc(Br)cc1CN1CCC(Nc2ccnc3cc(Cl)ccc23)CC1 [SJ000311181]	-1.209

Other lines, results leading:

percent inhibition (TR-FRET)	SMILES
14.5458	COc1ccc(F)c(CN(CCCCNc2ccnc3cc(Cl)ccc23)Cc2ccccc2)c1 [SJ000520441]
35.4339	Clc1ccc(CN(CCCCNc2ccnc3cc(Cl)ccc23)Cc2ccccc2)c(Cl)c1 [SJ000361207]
32.6515	Cc1ccc(C)c(CN(CCCCNc2ccnc3cc(Cl)ccc23)Cc2ccccc2)c1 [SJ000361209]
-258.592	CCCN(CCCNc1c2ccc(Cl)cc2nc2ccc(OC)cc12)Cc1ccccc1C(=O)O [SJ000520951]
31.8155	COc1ccc(C(F)(F)F)cc1CN(CCCCNc1ccnc2cc(Cl)ccc12)Cc1ccccc1 [SJ000520444]

same assay, conditions: single point TR-FRET screening of quinoline compounds against MAGE-A11:PCF11; 15 µM

SMILES	percent inhibition (TR-FRET)
CCCN(CCCNc1c2ccc(Cl)cc2nc2ccc(OC)cc12)Cc1ccc2[nH]ccc2c1 [SJ000522732]	39.4714
CCCN(CCCNc1c2ccc(Cl)cc2nc2ccc(OC)cc12)Cc1cc(Br)cs1 [SJ000522989]	-56.7027
CCCN(CCCNc1c2ccc(Cl)cc2nc2ccc(OC)cc12)Cc1c(C)cc(C)cc1C [SJ000520934]	-46.315
Cc1ccc(CNCCCNc2ccnc3cc(Cl)ccc23)s1 [SJ000311190]	10.8349
CCCN(CCCNc1c2ccc(Cl)cc2nc2ccc(OC)cc12)Cc1cccc([N+](=O)[O-])c1 [SJ000520948]	-10.7413
FC(F)(F)c1ccc2c(NCCCNCC3CCOC3)ccnc2c1 (stereo not drawn) [SJ000521065]	15.5598
CCOC(=O)c1cnc2c(C)cc(C)cc2c1NCCCN1CCOCC1 [SJ000173725]	6.494
Clc1ccc2c(NCCCN(Cc3ccccc3)Cc3ccc4ccccc4c3)ccnc2c1 [SJ000361182]	22.052
NC(=O)CC(Nc1c2ccccc2nc2ccccc12)C(=O)O (stereo not drawn) [SJ000044383]	20.1038
CCCN(CCCNc1c2ccc(Cl)cc2nc2ccc(OC)cc12)Cc1c(F)cccc1C(F)(F)F [SJ000522968]	23.0877
CCCN(CCCNc1c2ccc(Cl)cc2nc2ccc(OC)cc12)Cc1ccc(N(C)C)cc1 [SJ000520955]	-10.0604
FC(F)(F)c1ccc2c(NCCCNCc3nc4ccccc4s3)ccnc2c1 [SJ000521062]	14.4336
CCCN(CCCNc1c2ccc(Cl)cc2nc2ccc(OC)cc12)Cc1c(F)c(F)c(F)c(F)c1F [SJ000522734]	-2.258
CCCN(CCCNc1c2ccc(Cl)cc2nc2ccc(OC)cc12)CC(C)C [SJ000575150]	-21.3723

More lines, now with the values ahead:

percent inhibition (TR-FRET)	SMILES
18.7467	CCCN(CCCNc1ccnc2cc(Cl)ccc12)Cc1ccc2c(c1)OCO2 [SJ000522753]
28.8195	CCCN(CCCNc1ccnc2cc(C(F)(F)F)ccc12)Cc1ccccc1 [SJ000361256]
15.626	CCCN(CCCNc1ccnc2cc(Cl)ccc12)CC1CCCCC1 [SJ000522751]
14.4758	CCCN(CCCNc1c2ccc(Cl)cc2nc2ccc(OC)cc12)Cc1cccc(OC(F)(F)F)c1 [SJ000522967]
18.8867	CCc1ccc(CN(CCCNc2ccnc3cc(Cl)ccc23)Cc2ccccc2)cc1 [SJ000520442]
-21.8698	CCCN(CCCNc1ccnc2cc(Cl)ccc12)Cc1ccccc1OC(F)(F)F [SJ000357595]
32.6098	CCCN(CCCNc1ccnc2cc(C(F)(F)F)ccc12)Cc1ccccc1OC [SJ000523072]
15.6779	CCCN(CCC)CCCNc1ccnc2cc(C(F)(F)F)ccc12 [SJ000361250]
19.9321	CCCN(CCCNc1ccnc2cc(C(F)(F)F)ccc12)Cc1c(C)cc(C)cc1C [SJ000361264]
30.1342	CCCN(CCCNc1ccnc2cc(Cl)ccc12)Cc1ccc(CC)cc1 [SJ000523001]
19.0825	CCCN(CCCNc1ccnc2cc(C(F)(F)F)ccc12)Cc1ccc(C)s1 [SJ000361258]
2.509	FC(F)(F)c1ccccc1CN(CCCNc1ccnc2cc(Cl)ccc12)Cc1ccccc1 [SJ000361168]
19.0144	CC(CCNCCCNc1ccnc2cc(Cl)ccc12)c1ccccc1 (stereo not drawn) [SJ000523053]
31.1941	Cc1cc(C)c(CN(CCCNc2ccnc3cc(Cl)ccc23)Cc2ccccc2)c(C)c1 [SJ000361169]
35.4339	CCCN(CCCNc1ccnc2cc(Cl)ccc12)Cc1c(C)cc(C)cc1C [SJ000522749]
28.213	Clc1ccc2c(NCCCN(Cc3ccccc3)CC3CCCCC3)ccnc2c1 [SJ000361171]
13.2411	Clc1ccc2c(NCCCN(CCOCc3ccccc3)Cc3ccccc3)ccnc2c1 [SJ000357583]

From article PMC7529893, “Structural basis for substrate recognition and chemical inhibition of oncogenic MAGE ubiquitin ligases” (Nature Communications, 2020)
